What all share (assay type): in vivo
Data set [1] deals with rice plant. Kind of data set: Phytotoxicity test under shallow planting conditions for rice plant (Test Example 4). The following applies: aerial part, three weeks after the treatment. From the text:
[Test Example 4] Phytotoxicity test under shallow planting conditions for rice plant In a 1/5,000-are Wagner pot was filled alluvial soil, which was mixed with water introduced therein to establish submerged conditions at a water depth of 4 cm. Rice seedlings at 2.5 leaf stage were transplanted at a depth of 0.5 cm and the roots were exposed to the air. On the day when the transplantation was made, the compound of the present invention prepared according to one of Composition Examples was applied. Three weeks after the treatment, the live weight of the aerial part of the plant was measured and inhibition ratio (%) was obtained according to the following equation. Inhibition ratio (%) = (1 -(live weight of aerial part of treated plant)/(live weight of aerial part of non-treated plant)) x 100 [formula]

Data set [2] has as its system Rotala indica. As to the kind of experiment: Herbicidal effect test under submerged conditions (Test Example 5). Details: key: 0 indicating no influence; 5 indicating complete withering. Conditions: three weeks after the treatment, rating 0-5. From the text:
(§1) [Test Example 5] Herbicidal effect test under submerged conditions
(§2) In a 1/10,000-are Wagner pot was filled alluvial soil, which was mixed with water introduced therein to establish submerged conditions at a water depth of 4 cm. Respective seeds of Monochoria vaginalis, Rotala indica and Scirpus juncoides were sowed mixedly in the pot and then treated with the compound of the present invention prepared according to one of Composition Examples. Three weeks after the treatment, the herbicidal effect on the various weeds was examined.

In data set [3] the test system is Scirpus juncoides. The description is as above. Details: key: 0 indicating no influence; 5 indicating complete withering. Conditions: three weeks after the treatment, rating 0-5.
From the text: as §1, §2

The subject of data set [4] is Monochoria vaginalis. The description is as above. The arrangement: key: 0 indicating no influence; 5 indicating complete withering. Conditions: three weeks after the treatment, rating 0-5.
From the text: as §1, §2

On to `C=C(C)[C@@H]1C[C@@H]2O[C@]2(C)[C@H](OCc2ccccc2F)C1` [A-5, (1S, 2R, 4S, 6S)-2-(2-fluorobenzyloxy)-4-isopropenyl-1-methyl-7-oxabicyclo[4.1.0]heptane], for which the “the ratio of live weight to the non-treated area (%)” value in data set [1] (dosage 125 g/ha) came out at 86%; in data set [1] (dosage 250 g/ha) it was 67%. Besides, the entries for the “herbicidal effect, D (Rotala indica)” value in data set [2] (dosage 125 g/ha), in data set [2] (dosage 250 g/ha) and in data set [2] (dosage 500 g/ha) were 2, 4 and 5, respectively. Also, the “herbicidal effect, B (Scirpus juncoides)” value in data set [3] (dosage 125 g/ha) was 4; in data set [3] (dosage 250 g/ha), 5; in data set [3] (dosage 500 g/ha), 5. Besides, the figures for the “herbicidal effect, C (Monochoria vaginalis)” value in data set [4] (dosage 125 g/ha), in data set [4] (dosage 250 g/ha) and in data set [4] (dosage 500 g/ha) were 3, 5 and 5, respectively.

Values taken from EP0976707A1, “CYCLOALKYL BENZYL ETHER COMPOUNDS” (Nissan Chemical Industries, Ltd., priority 1997, dated 1998).
